Results from ChEMBL document CHEMBL5634123, “Design and synthesis of 1H-benzo[d]imidazole selective HDAC6 inhibitors with potential therapy for multiple myeloma” (Eur J Med Chem, 2023).
Calls of active or inactive are those of the source. The rule behind the calls is not given here.

What was measured:
RPMI-8226 [1] = experiment: Upregulation of Ac-alpha-tubulin expression in human RPMI-8226 cells at 0.1 uM incubated for 24 hrs by Western blot analysis; type: functional, cell-based
RPMI-8226 [2] = experiment: Upregulation of Ac-H3 expression in human RPMI-8226 cells at 0.1 to 0.5 uM incubated for 24 hrs by Western blot analysis; type: functional, cell-based; conditions: dose 0.1-0.5 µM
[3] = molecular target: T1, Protein deacetylase HDAC6 (Homo sapiens) (UniProt Q9UBN7); experiment: Inhibition of HDAC6 in human RPMI-8226 cells assessed as increase in Ac-alpha-tubulin expression at 0.5 to 2.5 uM incubated for 24 hrs by Western blot analysis; type: cell-based; conditions: dose 0.5-2.5 µM
T1 sequence (whole entry): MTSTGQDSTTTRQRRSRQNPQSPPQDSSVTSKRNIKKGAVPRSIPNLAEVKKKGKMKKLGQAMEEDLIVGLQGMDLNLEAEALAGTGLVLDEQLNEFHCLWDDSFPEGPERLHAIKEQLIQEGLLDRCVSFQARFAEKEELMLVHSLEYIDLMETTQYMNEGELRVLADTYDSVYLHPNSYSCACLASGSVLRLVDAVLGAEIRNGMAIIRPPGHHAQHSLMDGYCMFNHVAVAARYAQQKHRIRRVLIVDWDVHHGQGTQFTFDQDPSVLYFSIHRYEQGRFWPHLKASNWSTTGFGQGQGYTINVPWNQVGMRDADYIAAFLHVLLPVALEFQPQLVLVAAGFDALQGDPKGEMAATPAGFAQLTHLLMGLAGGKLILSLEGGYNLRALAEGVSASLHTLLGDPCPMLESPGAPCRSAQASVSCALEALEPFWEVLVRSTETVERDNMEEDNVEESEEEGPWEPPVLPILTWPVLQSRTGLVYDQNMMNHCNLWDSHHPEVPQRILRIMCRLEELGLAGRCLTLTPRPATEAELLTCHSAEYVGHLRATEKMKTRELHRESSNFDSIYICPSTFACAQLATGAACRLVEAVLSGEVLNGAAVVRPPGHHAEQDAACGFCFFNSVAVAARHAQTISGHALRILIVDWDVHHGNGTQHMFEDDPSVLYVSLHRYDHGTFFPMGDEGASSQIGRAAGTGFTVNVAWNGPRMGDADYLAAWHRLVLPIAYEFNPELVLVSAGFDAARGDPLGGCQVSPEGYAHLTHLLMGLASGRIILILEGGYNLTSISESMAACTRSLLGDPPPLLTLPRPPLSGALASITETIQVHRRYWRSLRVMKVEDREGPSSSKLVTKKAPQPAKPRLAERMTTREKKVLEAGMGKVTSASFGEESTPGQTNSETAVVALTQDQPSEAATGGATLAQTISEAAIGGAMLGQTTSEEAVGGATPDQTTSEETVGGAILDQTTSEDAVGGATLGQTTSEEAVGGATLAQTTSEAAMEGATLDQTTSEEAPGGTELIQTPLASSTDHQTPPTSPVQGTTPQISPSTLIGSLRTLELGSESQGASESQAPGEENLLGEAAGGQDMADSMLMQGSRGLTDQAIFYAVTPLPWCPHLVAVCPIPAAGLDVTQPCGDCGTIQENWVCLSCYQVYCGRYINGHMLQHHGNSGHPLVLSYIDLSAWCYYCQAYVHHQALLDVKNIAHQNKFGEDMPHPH

[4] = Cmax in mouse at 10 mg/kg, po; type: ADME, organism-based; conditions: in vivo
RPMI-8226 [5] = experiment: Induction of cell cycle arrest at G2 phase in human RPMI-8226 cells at 2.5 uM incubated for 24 hrs by PI staining based flow cytometry (reference value: 18.3 %); type: functional
Histone deacetylase 8 = molecular target: T2, Histone deacetylase 8 (Homo sapiens, UniProt Q9BY41); experiment: Inhibition of HDAC8 (unknown origin) preincubated for 10 mins followed by substrate addition by fluorescence based assay
T2 sequence (Q9BY41 whole entry): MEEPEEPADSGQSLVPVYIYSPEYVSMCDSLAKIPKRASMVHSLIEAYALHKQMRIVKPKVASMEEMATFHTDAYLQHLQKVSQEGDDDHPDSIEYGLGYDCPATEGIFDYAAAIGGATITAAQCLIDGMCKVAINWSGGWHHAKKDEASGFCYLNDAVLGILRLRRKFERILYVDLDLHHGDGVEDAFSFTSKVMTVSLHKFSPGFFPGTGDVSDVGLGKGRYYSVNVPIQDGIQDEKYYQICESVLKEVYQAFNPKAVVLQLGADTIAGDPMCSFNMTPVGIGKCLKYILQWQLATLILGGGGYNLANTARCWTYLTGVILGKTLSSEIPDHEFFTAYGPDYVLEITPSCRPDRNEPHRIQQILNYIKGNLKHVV

RPMI-8226 [6] = experiment: Induction of apoptosis in human RPMI-8226 cells assessed as viable cells at 2.5 uM incubated for 24 hrs by Annexin V-FITC/PI staining based flow cytometry (reference value: 90.98 %); type: functional; conditions: read-out: Activity
[7] = Half life in mouse at 1 mg/kg, iv; type: ADME, organism-based; conditions: in vivo
[8] = Toxicity in Balb/c nude mouse xenografted with human RPMI-8226 cells assessed as body weight loss at 10 to 40 mg/kg, po qd for 21 days administered consecutively; type: organism-based; conditions: in vivo, 504 h, dose 10-40 mg/kg, time 21 day

Cn1c([C@@H](Cc2ccccc2)NCc2ccccc2)nc2cc(C(=O)NO)ccc21
Activity (RPMI-8226 [1]): inactive | Activity (RPMI-8226 [2]): inactive | inhibition [3]: Active | Cmax [4]: 177 ng/mL | Activity (RPMI-8226 [5]): 25.6% | IC50 (Histone deacetylase 8): 867 nM | viability at 2.5 µM (RPMI-8226 [6]): 76.5% | half-life [7]: 41.9 min | Activity [8]: Non-Toxic
